In paper PMC8694143 (Microbiology Spectrum, 2021):

How the values were obtained:
Assay in all cases: MIC determination in broth
Type in all cases: cell-based, Staphylococcus aureus
MRSA ATCC BAA-2094 = details: STIP3 variants, highest conc. tested 100 μg/mL; cation-adjusted MH broth, ~10^5 CFU/mL, 2-fold dilution series, 37°C, 16 h
Procedure: (§1) M. luteus ATCC 4698, S. aureus ATCC 29213, a panel of 7 MRSA (ATCC MP-2) strains, which includes ATCC BAA-41, BAA-42, BAA-44, BAA-1683, BAA-2094, BAA-2313, and 33592, and a series of additional bacterial isolates from human and veterinary cases were used in this study (Table S6). Bacterial strains were routinely grown in lysogeny broth (LB: 10 g/L tryptone, 5 g/L yeast extract, 10 g/L NaCl) at 30°C (M. luteus) or 37°C (Staphylococcus spp.) prior to use in specific experiments described below.
(§2) The MICs were measured for bioactive peptides identified from the initial screen. Cation-adjusted Mueller-Hinton (MH) broth was used as the growth medium for MIC determination experiments. Bacterial cultures were diluted to an OD of 5 × 10^−4 (∼10^5 CFU/mL) in 200 μL MH broth mixed with peptides in a 2-fold dilution series arrayed in 96-well plates. Plates were incubated without shaking at 30 or 37°C depending on the organism.

S. aureus ATCC 29213 = details: STIP3 variants, highest conc. tested 100 μg/mL; cation-adjusted MH broth, ~10^5 CFU/mL, 2-fold dilution series, 37°C, 16 h
Procedure: as §1, §2

MRSA ATCC BAA-44 = details: STIP3 variants, highest conc. tested 100 μg/mL; cation-adjusted MH broth, ~10^5 CFU/mL, 2-fold dilution series, 37°C, 16 h
Procedure: as §1, §2

MRSA ATCC BAA-41 = details: STIP3 variants, highest conc. tested 100 μg/mL; cation-adjusted MH broth, ~10^5 CFU/mL, 2-fold dilution series, 37°C, 16 h
Procedure: as §1, §2

MRSA ATCC BAA-2313 = details: STIP3 variants, highest conc. tested 100 μg/mL; cation-adjusted MH broth, ~10^5 CFU/mL, 2-fold dilution series, 37°C, 16 h
Procedure: as §1, §2

MRSA ATCC BAA-1683 = details: STIP3 variants, highest conc. tested 100 μg/mL; cation-adjusted MH broth, ~10^5 CFU/mL, 2-fold dilution series, 37°C, 16 h
Procedure: as §1, §2

MRSA ATCC 33592 = details: Table S5; STIP3 variants, highest conc. tested 100 μg/mL; cation-adjusted MH broth, ~10^5 CFU/mL, 2-fold dilution series, 37°C, 16 h
Procedure: as §1, §2

MRSA ATCC BAA-42 = details: STIP3 variants, highest conc. tested 100 μg/mL; cation-adjusted MH broth, ~10^5 CFU/mL, 2-fold dilution series, 37°C, 16 h
Procedure: as §1, §2

Substance | MIC, S. aureus ATCC BAA 2094 (SCCmec V) (MRSA ATCC BAA-2094) | MIC, S. aureus ATCC 29213 (S. aureus ATCC 29213) | MIC, S. aureus ATCC BAA 44 (SCCmec I) (MRSA ATCC BAA-44) | MIC, S. aureus ATCC BAA 41 (SCCmec II) (MRSA ATCC BAA-41) | MIC, S. aureus ATCC BAA 2313 (SCCmec XI) (MRSA ATCC BAA-2313) | MIC, S. aureus ATCC BAA 1683 (SCCmec IV) (MRSA ATCC BAA-1683) | MIC, S. aureus ATCC 33592 (SCCmec III) (MRSA ATCC 33592) | MIC, S. aureus ATCC BAA 42 (SCCmec VI) (MRSA ATCC BAA-42)
TVAGLVKWILATVKKFA [STIP3-15, rationally designed STIP3-1 variant] | 25 µg/mL | 25 µg/mL | 25 µg/mL | 50 µg/mL | 50 µg/mL | 25 µg/mL | 12.5 µg/mL | 50 µg/mL
TVDGLVKWILATVKKFA [STIP3-17, rationally designed STIP3-1 variant] | > (The > symbol indicates that no inhibition was observed at 100 μg/mL for the STIP3 variants) | > (The > symbol indicates that no inhibition was observed at 100 μg/mL for the STIP3 variants) | > (The > symbol indicates that no inhibition was observed at 100 μg/mL for the STIP3 variants) | > (The > symbol indicates that no inhibition was observed at 100 μg/mL for the STIP3 variants) | > (The > symbol indicates that no inhibition was observed at 100 μg/mL for the STIP3 variants) | > (The > symbol indicates that no inhibition was observed at 100 μg/mL for the STIP3 variants) | > (The > symbol indicates that no inhibition was observed at 100 μg/mL for the STIP3 variants) | > (The > symbol indicates that no inhibition was observed at 100 μg/mL for the STIP3 variants)
TVGGLVKWILAAVKKFA [STIP3-12, rationally designed STIP3-1 variant] | 50 µg/mL | 25 µg/mL | 25 µg/mL | 25 µg/mL | 25 µg/mL | 25 µg/mL | 25 µg/mL | 25 µg/mL
TVGGLVKWILDTFKKFA [STIP3-11, rationally designed STIP3-1 variant] | 100 µg/mL | 50 µg/mL | 100 µg/mL | 50 µg/mL | 100 µg/mL | 50 µg/mL | 50 µg/mL | 50 µg/mL
TVGGLVKWILDTVKKFA-NH2 [STIP3-27, C-terminally amidated STIP3-1] | 25 µg/mL | 50 µg/mL | 25 µg/mL | 25 µg/mL | 50 µg/mL | 25 µg/mL | 50 µg/mL | 25 µg/mL
TVGGLVKWILDVVKKFA [STIP3-9, rationally designed STIP3-1 variant] | 25 µg/mL | 25 µg/mL | 25 µg/mL | 35 µg/mL | 25 µg/mL | 25 µg/mL | 25 µg/mL | 25 µg/mL
TVGGLVKWILDWVKKFA [STIP3-10, rationally designed STIP3-1 variant] | 100 µg/mL | 100 µg/mL | 200 µg/mL | 100 µg/mL | 50 µg/mL | > (The > symbol indicates that no inhibition was observed at 100 μg/mL for the STIP3 variants) | 100 µg/mL | 25 µg/mL
TVGGLVKWILKAVKKFA [STIP3-13, rationally designed STIP3-1 variant] | 25 µg/mL | 25 µg/mL | 25 µg/mL | 12.5 µg/mL | 25 µg/mL | 25 µg/mL | 25 µg/mL | 25 µg/mL
TVGGLVKWILKTVKKFA [STIP3-3, rationally designed STIP3-1 variant] | 25 µg/mL | 25 µg/mL | 25 µg/mL | 25 µg/mL | 50 µg/mL | 50 µg/mL | 25 µg/mL | 50 µg/mL
TVGGLVKWILNTVKKFA [STIP3-4, rationally designed STIP3-1 variant] | 50 µg/mL | 100 µg/mL | 50 µg/mL | 50 µg/mL | 100 µg/mL | 100 µg/mL | 50 µg/mL | 50 µg/mL
TVGVLVKWILNVVAKFA [STIP3-24, rationally designed STIP3-1 variant] | > (The > symbol indicates that no inhibition was observed at 100 μg/mL for the STIP3 variants) | > (The > symbol indicates that no inhibition was observed at 100 μg/mL for the STIP3 variants) | > (The > symbol indicates that no inhibition was observed at 100 μg/mL for the STIP3 variants) | > (The > symbol indicates that no inhibition was observed at 100 μg/mL for the STIP3 variants) | > (The > symbol indicates that no inhibition was observed at 100 μg/mL for the STIP3 variants) | > (The > symbol indicates that no inhibition was observed at 100 μg/mL for the STIP3 variants) | > (The > symbol indicates that no inhibition was observed at 100 μg/mL for the STIP3 variants) | > (The > symbol indicates that no inhibition was observed at 100 μg/mL for the STIP3 variants)
TVKALVKWILKTVAKFA [STIP3-19, rationally designed STIP3-1 variant] | 25 µg/mL | 50 µg/mL | 25 µg/mL | 50 µg/mL | 25 µg/mL | 25 µg/mL | 25 µg/mL | 50 µg/mL
TVKALVKWILKTVAKFW [STIP3-21, rationally designed STIP3-1 variant] | 12.5 µg/mL | 25 µg/mL | 25 µg/mL | 25 µg/mL | 12.5 µg/mL | 12.5 µg/mL | 25 µg/mL | 25 µg/mL
